Target: T1, HCV polymerase (Hepatitis C virus genotype 1b, UniProt P26663)
T1 construct: a region encoding NS5B (591 amino acids; J Virol 1991 Mar, 65(3), 1105-13) was amplified by PCR; 6 His (N); made in house; host or cells: Escherichia coli
Experiment: biochemical
Details: read-out: HCV polymerase inhibitory activity IC50

T1 sequence (P26663 2420-3010): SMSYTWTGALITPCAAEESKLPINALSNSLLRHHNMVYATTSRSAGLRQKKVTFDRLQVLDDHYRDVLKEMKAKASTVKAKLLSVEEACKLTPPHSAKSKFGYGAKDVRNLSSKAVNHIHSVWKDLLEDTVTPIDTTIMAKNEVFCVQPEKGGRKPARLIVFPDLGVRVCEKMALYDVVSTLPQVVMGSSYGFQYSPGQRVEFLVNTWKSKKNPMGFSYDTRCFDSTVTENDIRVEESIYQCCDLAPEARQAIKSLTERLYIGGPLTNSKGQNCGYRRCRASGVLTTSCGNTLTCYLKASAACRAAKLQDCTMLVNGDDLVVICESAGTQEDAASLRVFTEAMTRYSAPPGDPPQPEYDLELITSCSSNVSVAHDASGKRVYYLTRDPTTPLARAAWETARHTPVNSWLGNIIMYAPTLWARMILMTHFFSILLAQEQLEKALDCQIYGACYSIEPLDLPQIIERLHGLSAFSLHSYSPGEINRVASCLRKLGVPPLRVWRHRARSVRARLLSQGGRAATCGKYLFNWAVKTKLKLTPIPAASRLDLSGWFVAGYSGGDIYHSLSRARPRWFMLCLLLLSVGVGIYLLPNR

| SMILES | IC50 [nM] |
| --- | --- |
| O=C(O)c1ccc2c(c1)nc(-c1ccc(OCc3ccccc3)nc1)n2C1CCCCC1 [Example 100, 2-(2-benzyloxy-5-pyridyl)-1-cyclohexylbenzimidazole-5-carboxylic acid] | 780 |
| O=C(O)c1ccc2c(c1)nc(-c1ccc(OCCc3cccc4ccccc34)cc1)n2C1CCCCC1 [Example 103, 1-cyclohexyl-2-{4-[2-(1-naphthyl)ethoxy]phenyl}benzimidazole-5-carboxylic acid] | 170 |
| O=C(O)c1ccc2c(c1)nc(-c1ccc(Oc3ccccc3OCc3ccccc3)cc1)n2C1CCCCC1 [Example 104, 2-[4-(2-benzyloxyphenoxy)phenyl]-1-cyclohexylbenzimidazole-5-carboxylic acid] | 73 |
| O=C(O)c1ccc2c(c1)nc(-c1ccc(Oc3cccc(OCc4ccccc4)c3)cc1)n2C1CCCCC1 [Example 105, 2-[4-(3-benzyloxyphenoxy)phenyl]-1-cyclohexylbenzimidazole-5-carboxylic acid] | 76 |
| O=C(O)c1ccc2c(c1)nc(-c1ccc(Oc3ccccc3O)cc1)n2C1CCCCC1 [Example 106, 1-cyclohexyl-2-[4-(2-hydroxyphenoxy)phenyl]benzimidazole-5-carboxylic acid] | 400 |
| O=C(O)c1ccc2c(c1)nc(-c1ccc(Oc3cccc(O)c3)cc1)n2C1CCCCC1 [Example 107, 1-cyclohexyl-2-[4-(3-hydroxyphenoxy)phenyl]benzimidazole-5-carboxylic acid] | 110 |
| COc1ccccc1Oc1ccc(-c2nc3cc(C(=O)O)ccc3n2C2CCCCC2)cc1 [Example 108, 1-cyclohexyl-2-[4-(2-methoxyphenoxy)phenyl]benzimidazole-5-carboxylic acid] | 210 |
| COc1cccc(Oc2ccc(-c3nc4cc(C(=O)O)ccc4n3C3CCCCC3)cc2)c1 [Example 109, 1-cyclohexyl-2-[4-(3-methoxyphenoxy)phenyl]benzimidazole-5-carboxylic acid] | 110 |
| CCCOc1ccccc1Oc1ccc(-c2nc3cc(C(=O)O)ccc3n2C2CCCCC2)cc1 [Example 110, 1-cyclohexyl-2-[4-(2-propoxyphenoxy)phenyl]benzimidazole-5-carboxylic acid] | 240 |
| CCCOc1cccc(Oc2ccc(-c3nc4cc(C(=O)O)ccc4n3C3CCCCC3)cc2)c1 [Example 111, 1-cyclohexyl-2-[4-(3-propoxyphenoxy)phenyl]benzimidazole-5-carboxylic acid] | 140 |
| CC(C)=CCOc1ccccc1Oc1ccc(-c2nc3cc(C(=O)O)ccc3n2C2CCCCC2)cc1 [Example 112, 1-cyclohexyl-2-{4-[2-(3-methyl-2-butenyloxy)phenoxy]phenyl}-benzimidazole-5-carboxylic acid] | 110 |
| CC(C)=CCOc1cccc(Oc2ccc(-c3nc4cc(C(=O)O)ccc4n3C3CCCCC3)cc2)c1 [Example 113, 1-cyclohexyl-2-{4-[3-(3-methyl-2-butenyloxy)phenoxy]phenyl}-benzimidazole-5-carboxylic acid] | 71 |
| CC(C)CCOc1ccccc1Oc1ccc(-c2nc3cc(C(=O)O)ccc3n2C2CCCCC2)cc1 [Example 114, 1-cyclohexyl-2-[4-(2-isopentyloxyphenoxy)phenyl]benzimidazole-5-carboxylic acid] | 560 |
| CC(C)CCOc1cccc(Oc2ccc(-c3nc4cc(C(=O)O)ccc4n3C3CCCCC3)cc2)c1 [Example 115, 1-cyclohexyl-2-[4-(3-isopentyloxyphenoxy)phenyl]benzimidazole-5-carboxylic acid] | 170 |
| O=C(O)c1ccc2c(c1)nc(-c1ccc(OCc3ccccc3-c3ccc(C(F)(F)F)cc3)cc1)n2C1CCCCC1 [Example 117, 1-cyclohexyl-2-{4-[2-(4-trifluoromethylphenyl)benzyloxy]-phenyl}benzimidazole-5-carboxylic acid] | 75 |
| O=C(O)c1ccc2c(c1)nc(-c1ccc(OC(c3ccc(Cl)cc3)c3ccc(Cl)cc3)cc1)n2C1CCCCC1 [Example 118, 2-{4-[bis(4-chlorophenyl)methoxy]phenyl}-1-cyclohexylbenzimidazole-5-carboxylic acid] | 140 |
| COc1ccc(CCOc2ccc(-c3nc4cc(C(=O)O)ccc4n3C3CCCCC3)cc2)cc1 [Example 119, 1-cyclohexyl-2-{4-[2-(4-methoxyphenyl)ethoxy]phenyl}-benzimidazole-5-carboxylic acid] | 130 |
| COc1cccc(CCOc2ccc(-c3nc4cc(C(=O)O)ccc4n3C3CCCCC3)cc2)c1 [Example 121, 1-cyclohexyl-2-{4-[2-(3-methoxyphenyl)ethoxy]phenyl}-benzimidazole-5-carboxylic acid] | 190 |
| O=C(O)c1ccc2c(c1)nc(-c1ccc(OCc3ccccc3)cc1)n2C1CCCCCC1 [Example 122, 2-(4-benzyloxyphenyl)-1-cycloheptylbenzimidazole-5-carboxylic acid] | 510 |

| SMILES | IC50 [nM] |
| --- | --- |
| O=C(O)c1ccc2c(c1)nc(-c1ccc(Oc3ccccc3OCCc3ccccc3)cc1)n2C1CCCCC1 [Example 123, 1-cyclohexyl-2-[4-(2-phenethyloxyphenoxy)phenyl]benzimidazole-5-carboxylic acid] | 100 |
| O=C(O)c1ccc2c(c1)nc(-c1ccc(Oc3cccc(OCCc4ccccc4)c3)cc1)n2C1CCCCC1 [Example 124, 1-cyclohexyl-2-[4-(3-phenethyloxyphenoxy)phenyl]benzimidazole-5-carboxylic acid] | 91 |
| O=C(O)c1ccc2c(c1)nc(-c1ccc(OCC(c3ccccc3)c3ccccc3)cc1)n2C1CCCCC1 [Example 125, 1-cyclohexyl-2-[4-(2,2-diphenylethoxy)phenyl]benzimidazole-5-carboxylic acid] | 120 |
| O=C(O)c1ccc2c(c1)nc(-c1ccc(Oc3ccccc3Oc3ccccc3)cc1)n2C1CCCCC1 [Example 128, 1-cyclohexyl-2-[4-(2-phenoxyphenoxy)phenyl]benzimidazole-5-carboxylic acid] | 140 |
| O=C(O)c1ccc2c(c1)nc(-c1ccc(OCc3ccccc3-c3ccc(C(F)(F)F)cc3)cc1F)n2C1CCCCC1 [Example 131, 1-cyclohexyl-2-{2-fluoro-4-[2-(4-trifluoromethylphenyl)-benzyloxy]phenyl}benzimidazole-5-carboxylic acid] | 46 |
| O=C(O)c1ccc2c(c1)nc(-c1ccc(Oc3ccc(OCc4ccccc4)cc3)cc1)n2C1CCCCC1 [Example 132, 2-[4-(4-benzyloxyphenoxy)phenyl]-1-cyclohexylbenzimidazole-5-carboxylic acid] | 55 |
| Cc1ccc(C(Oc2ccc(-c3nc4cc(C(=O)O)ccc4n3C3CCCCC3)cc2)c2ccc(C)cc2)cc1 [Example 133, 2-{4-[bis(4-methylphenyl)methoxy]phenyl}-1-cyclohexylbenzimidazole-5-carboxylic acid] | 120 |
| O=C(O)c1ccc2c(c1)nc(-c1ccc(OC(c3ccc(F)cc3)c3ccc(F)cc3)cc1)n2C1CCCCC1 [Example 134, 2-{4-[bis(4-fluorophenyl)methoxy]phenyl}-1-cyclohexylbenzimidazole-5-carboxylic acid] | 71 |
| O=C(O)c1ccc2c(c1)nc(-c1ccc(OCCc3cccc(OCc4ccccc4)c3)cc1)n2C1CCCCC1 [Example 139, 2-{4-[2-(3-benzyloxyphenyl)ethoxy]phenyl}-1-cyclohexylbenzimidazole-5-carboxylic acid] | 260 |
| O=C(O)COc1ccccc1Oc1ccc(-c2nc3cc(C(=O)O)ccc3n2C2CCCCC2)cc1 [Example 140, 2-[4-(2-carboxymethyloxyphenoxy)phenyl]-1-cyclohexylbenzimidazole-5-carboxylic acid] | 110 |
| O=C(O)COc1cccc(Oc2ccc(-c3nc4cc(C(=O)O)ccc4n3C3CCCCC3)cc2)c1 [Example 141, 2-[4-(3-carboxymethyloxyphenoxy)phenyl]-1-cyclohexylbenzimidazole-5-carboxylic acid] | 430 |
| Cc1cc(OCc2ccccc2-c2ccc(C(F)(F)F)cc2)ccc1-c1nc2cc(C(=O)O)ccc2n1C1CCCCC1 [Example 144, 1-cyclohexyl-2-{2-methyl-4-[2-(4-trifluoromethylphenyl)-benzyloxy]phenyl}benzimidazole-5-carboxylic acid] | 190 |
| CC(C)(C)c1ccc(-c2ccc(Cl)cc2COc2ccc(-c3nc4cc(C(=O)O)ccc4n3C3CCCCC3)cc2)cc1 [Example 145, 2-{4-[2-(4-tert-butylphenyl)-5-chlorobenzyloxy]phenyl}-1-cyclohexylbenzimidazole-5-carboxylic acid] | 88 |
| O=C(O)c1ccc2c(c1)nc(-c1ccc(OCc3cc(Cl)ccc3-c3ccccc3)cc1F)n2C1CCCCC1 [Example 146, 2-{4-(3-chloro-6-phenylbenzyloxy)-2-fluorophenyl}-1-cyclohexylbenzimidazole-5-carboxylic acid] | 43 |
| O=C(O)c1ccc2c(c1)nc(-c1ccc(OCc3cc(Cl)ccc3-c3cc(Cl)cc(Cl)c3)cc1)n2C1CCCCC1 [Example 147, 2-{4-[3-chloro-6-(3,5-dichlorophenyl)benzyloxy]phenyl}-1-cyclohexylbenzimidazole-5-carboxylic acid] | 310 |
| O=C(O)c1ccc2c(c1)nc(-c1ccc(OC(c3ccc(F)cc3)c3ccc(F)cc3)cc1F)n2C1CCCCC1 [Example 148, 2-{4-[bis(4-fluorophenyl)methoxy]-2-fluorophenyl}-1-cyclohexylbenzimidazole-5-carboxylic acid] | 38 |
| O=C(O)c1ccc2c(c1)nc(-c1ccc(Oc3ccc(OCc4ccccc4)cc3)cc1Cl)n2C1CCCCC1 [Example 149, 2-{4-(4-benzyloxyphenoxy)-2-chlorophenyl}-1-cyclohexylbenzimidazole-5-carboxylic acid] | 150 |
| O=C(O)c1ccc2c(c1)nc(-c1ccc(Oc3ccc(OCc4ccccc4)cc3)cc1C(F)(F)F)n2C1CCCCC1 [Example 150, 2-{4-(4-benzyloxyphenoxy)-2-trifluoromethylphenyl}-1-cyclohexylbenzimidazole-5-carboxylic acid] | 240 |
